Measurements from patent publication US7235584B2, “Non-psychotropic cannabinoids” (Pharmos Corporation, priority 2000, dated 2007).

Assays:
AMPA binding = AMPA binding to rat forebrain membranes
[1] = tested on: MPTP-mouse model of Parkinson's disease; assay: MPTP model of Parkinson's disease, TH-IR neurons in SNpc; assay type: in vivo, C57/BL mice; settings: seven days after MPTP
Method: MPTP-induced model of Parkinson's Disease (PD) in mice is used to evaluate the value of the novel PRS-211 compounds as therapeutic agents for PD.
The MPTP-mouse model of Parkinson's disease is used to test the efficacy of the compounds to prevent the onset of PD symptoms.
The protocol is based on Liberatore et al. (Liberatore, Jackson-Lewis, Vukosavic, Mandir, Vila , McAuliffe, Dawson, Dawson and Przedborski, Nature Medicine 5:1403–9, 1999).
The treatment groups are as follows: • Vehicle 5 ml/kg IP once just before MPTP administration. • Dexanabinol or analog 10 mg/kg IP once just before MPTP administration. • Dexanabinol or analog 20 mg/kg IP once just before MPTP administration. • Dexanabinol or analog 20 mg/kg IP once just before MPTP administration+additional dose 24 hours later.
Seven days after MPTP administration the mice were euthanized and their brains removed cut and stained using an antiserum to tyrosine hydroxylase (TH-IR), the rate limiting enzyme in monoamainergic neurons. Attention was focused on the Substantia nigra, pars compacta (SNpc), which are comprise of dompaminergic neurons that project to the striatum. It is these neurons that undergo degeneration in Parkinson's Disease. MPTP acts as a specific neurotoxin for these neurons, and the aim was to determine whether MPTP-induced nerve degeneration could be ameliorated by Dexanabinol at 10 (D-10), 20 (D-20) or 30 (D-30) mg/kg, or 2 injections of Dexanabinol at 20mg/kg (D-20×2) relative to vehicle alone (V).
The rescue effect of the various treatments was calculated by comparing the number of the TH-IR cells in each group relative to that in animals treated with MPTP alone, which was arbitrarily assigned a value of zero.

kainic acid binding = assay: Kainic acid binding to rat forebrain membranes
PGE2 = assay: Inhibition of prostaglandin (PGE2) synthesis in LPS-stimulated macrophage cell cultures; assay type: cell-based
Method: The inhibitory effect of the new derivatives of Dexanabinol on prostaglandin synthesis is evaluated in macrophage cell cultures following LPS exposure to induce the inflammatory response. These assays are an indication of the anti-inflammatory activity of the individual analogs.
The inhibitory effect of Dexanabinol new analogs on prostaglandin synthesis was evaluated in macrophage cell cultures. Macrophages were seeded in a 24 well NUNC plates, and incubated with DMEM medium for 24 hours to allow attachment to plastic. The wells were vacuumed and a different new analog is added for 1 hour. Treatments are done in triplicates. Following, LPS was added for a duration of 3–24 extra hours, to induce the inflammatory response. The supernatants were collected and analyzed for PGE2 by enzyme immunoassay technique Biotrak kit (Amersham Pharmacia Biotech).

[2] = tested on: rat model of closed head injury; assay: Closed head injury (head trauma) in rats: cerebral edema and Neurological Severity Score; assay type: in vivo
Description: Severe head injury is associated with high mortality and severe neurological impairment. Animals subjected to head trauma in a controlled fashion serve as models in which to test drugs of therapeutic potential. Test compounds can be evaluated both for improved clinical outcome and for reduction of edema induced by closed head injury. The ability of compounds to reduce the severity of neurological symptoms and to reduce brain edema is considered a measure of their potency in reducing brain damage.
The cerebroprotective effect of PRS-211 compounds was assessed in a model of head trauma (HT) in rats. […] The clinical status of the rats was evaluated 1, 24 and 48 hours after injury along with measuring the extent of cerebral edema. The neurological deficit, assessed by a set of criteria termed the Neurological Severity Score (NSS), is maximal at 1 hour after the initiation of head trauma. […]
The model was described in detail by Shapira et al., Crit. […] During the recovery period, the clinical status was evaluated by a set of criteria (NSS).
Trauma induced a significant decrease in specific gravity (SG) of brain tissue and increase in water content following head injury. […] Tissue pieces (20 mg each) were placed on top of the column and the SG calculated from the equilibrium position in the column, using a standard curve. […]

[3] = tested on: rat model of myocardial ischemia; assay: Rat model of myocardial ischemia and reperfusion; assay type: in vivo, Sprague-Dawley rats; settings: given 15 minutes before occlusion; 45 minutes occlusion, 4 hours reperfusion
Description: A rat model of ischemia and reperfusion was used to test the ability of compounds to reduce the volumes of infarction is considered a measure of their potential as cardioprotectors.
The following model of myocardial infarction and heart failure was used to test the ability of compounds to reduce the volumes of infarction is considered a measure of their potential as cardioprotectors.
The methods used are essentially as described in Leor and Kloner (Leor and Klonner, Am. J Cardiol. 75:1292–3 1995). The experiment was performed in a masked fashion. In brief, Sprague-Dawley rats were given either vehicle or PRS-211,095 15 minutes before occlusion. They were subjected to 45 minutes of coronary occlusion and 4 hours of reperfusion, after which the coronary artery was reoccluded and 0.25 ml of Unisperse™ dye was injected IV to determine area of risk (AR). The rats were euthanized and hearts were analyzed as to infarct size using a 1% solution of triphenylteuazolium chloride for 15 minutes at 37° C. The area of necrosis (AN) in each heart was expressed as a percentage of the area at risk. This was multiplied by the weight of each slice to obtain the mass of tissue at risk and necrosis.

In the case of `CCCCCCC(C)(C)c1cc(O)c2c(c1)OC(C)(C)[C@H]1CC=C(CO)CC21` (stereo partly drawn) [211,007-000, 1,1 dimethyl heptyl-(3S,4S)-7-hydroxy-Δ^6-tetrahydrocannabinol], the “inhibition of AMPA binding” value (AMPA binding) is reported as “unable to inhibit”, the “TH-IR SNpc (rescue effect relative to MPTP alone = 0)” value ([1]; 10 mg/kg IP) is reported as −7.85 and the “TH-IR SNpc (rescue effect relative to MPTP alone = 0)” value ([1]; 20 mg/kg IP) is reported as 28.52. The “TH-IR SNpc (rescue effect relative to MPTP alone = 0)” value ([1]; 30 mg/kg IP) was 22.73, the “TH-IR SNpc (rescue effect relative to MPTP alone = 0)” value ([1]; 2 injections at 20 mg/kg) was 8.5 and the “inhibition of kainic acid binding” value (kainic acid binding) was “unable to inhibit”.
Compound `CCCCCCC(C)(C)c1cc(O)c2c(c1)OC(C)(C)[C@H]1CC=C(Cn3cccn3)C[C@H]21` [211,220-000, (+)-(3S,4S)-6,6-Dimethyl-(1,1-dimethylheptyl)-1-hydroxy-9-(pyrazolomethyl)-6a,7,10,10a-tetrahydro-6H-dibenzo[b,d]pyran] has an inhibition at 10 µM (PGE2) of 59%.
For `CCCCCCC(C)(C)c1cc(O)c2c(c1)OC(C)(C)C1CC=C(Cn3ccnc3)CC21.Cl` (single isomer, unassigned; (+)) [211,095-000, (+)-(3S ,4S )-6,6-Dimethyl-(1,1-dimethylheptyl)-1-hydroxy-9-(imidazolomethyl)-6a,7,10,10a-tetrahydro-6H-dibenzo[b,d]pyran], the “edema formation and BBB disruption” value ([2]; given 30 min before, immediately after, or 1 and 2 hours after HT) was “significantly reduces edema formation and BBB disruption” and the “edema and clinical outcome 24 hours after HT” value ([2]; one dose of 5 mg/kg given 1 hour after the impact) was “effectively reduced edema and improved the clinical outcome”.
With `CCCCCCC(C)(C)c1cc(O)c2c(c1)OC(C)(C)C1CC=C(CSc3ncc[nH]3)CC21` (single isomer, unassigned; (+)) [211,092-000] the “infarct size (AN/AR, AN/LV), FIG. 13” value [3] was “clear decrease in infarct size”.
